Results on 20 compounds are retold here after patent US20080221132A1, “Multi-Functional Small Molecules as Anti-Proliferative Agents” (priority 2006, published 2008).

The test system of one data set is Pancreas_MiaPaCa2. Kind of data set: Cell proliferation assay (ATPlite), MiaPaCa2. Conditions: Homo sapiens, MIA PaCa-2; TABLE C; 72 hours, 0.5% fetal bovine serum, ATP content; read-out: IC50 grading, Pancreas_MiaPaCa2. It is filed as cell-based. On the procedure: (§1) A representative number of compounds were assayed against several different cell lines using the cell proliferation assay:
(§2) Cell Proliferation Assay:
(§3) Cancer cell lines were plated at 5,000 to 10,000 per well in 96-well flatted bottomed plates with various concentration of compounds. The cells were incubated with compounds for 72 hours in the presence of 0.5% of fetal bovine serum. Growth inhibition was accessed by adenosine triphosphate (ATP) content assay using Perkin Elmer ATPlite kit. ATPlite is an ATP monitoring system based on firefly luciferase. Briefly, 25 μl of mammalian cell lysis solution was added to 50 μl of phenol red-free culture medium per well to lyse the cells and stabilize the ATP. 25 μl of substrate solution was then added to the well and subsequently the luminescence was measured.

The test system of another data set is Pancreas_HPAC. Kind of data set: Cell proliferation assay (ATPlite), HPAC. It is filed as cell-based. Conditions: Homo sapiens, TABLE C, 72 hours, 0.5% fetal bovine serum, ATP content, read-out: IC50 grading, Pancreas_HPAC. As to the method:
as §1, §2, §3
Background: In ATP-based viability assays light output follows the ATP content of the culture.

Another data set deals with Pancreas_BxPC3. Kind of data set: Cell proliferation assay (ATPlite), BxPC3. It is filed as cell-based. The settings on record: Homo sapiens, BXPC-3; TABLE C; 72 hours, 0.5% fetal bovine serum, ATP content; read-out: IC50 grading, Pancreas_BxPC3. On the procedure: as §1, §2, §3
In the next data set the test system is Pancreas_CFPAC. Kind of data set: Cell proliferation assay (ATPlite), CFPAC. It is filed as cell-based. Conditions: TABLE C; 72 hours, 0.5% fetal bovine serum, ATP content; read-out: IC50 grading, Pancreas_CFPAC. On the procedure:
as §1, §2, §3

The subject of the next data set is Pancreas_PANC1. Kind of data set: Cell proliferation assay (ATPlite), PANC1. The settings on record: Homo sapiens, PANC-1; TABLE C; 72 hours, 0.5% fetal bovine serum, ATP content; read-out: IC50 grading, Pancreas_PANC1. It is filed as cell-based. On the procedure: as §1, §2, §3
Data set [1] deals with HDAC (HeLa nuclear extract). Kind of data set: HDAC fluorimetric assay kit (AK-500, Biomol), HeLa nuclear extract. It is filed as biochemical. The settings on record: TABLE 1-B, Section 1 compounds; read-out: HDAC (IC50 grading). On the procedure:
(§4) HDAC inhibitors were screened using an HDAC fluorimetric assay kit (AK-500, Biomol, Plymouth Meeting, Pa.). […] Each assay was setup as follows: Defrosted all kit components and kept on ice until use. […] Prepared dilutions of Trichostatin A (TSA, positive control) and tested compounds in assay buffer (5× of final concentration). Diluted Fluor de Lys™ Substrate in assay buffer to 100 uM (50 fold=2× final). Diluted Fluor de Lys™ developer concentrate 20-fold (e.g. 50 μl plus 950 μl Assay Buffer) in cold assay buffer. Second, diluted the 0.2 mM Trichostatin A 100-fold in the 1× Developer (e.g. 10 μl in 1 ml; final Trichostatin A concentration in the 1× Developer=2 μM; final concentration after addition to HDAC/Substrate reaction=1 μM). Added Assay buffer, diluted trichostatin A or test inhibitor to appropriate wells of the microtiter plate. Added diluted HeLa extract or other HDAC sample to all wells except for negative controls.
HDAC inhibitors were screened using an HDAC fluorimetric assay kit (AK-500, Biomol, Plymouth Meeting, Pa.).
Each assay was setup as follows: Defrosted all kit components and kept on ice until use. […] Prepared dilutions of Trichostatin A (TSA, positive control) and tested compounds in assay buffer (5× of final concentration). Diluted Fluor de Lys™ Substrate in assay buffer to 100 uM (50 fold=2× final). Diluted Fluor de Lys™ developer concentrate 20-fold (e.g. 50 μl plus 950 μl Assay Buffer) in cold assay buffer. Second, diluted the 0.2 mM Trichostatin A 100-fold in the 1× Developer (e.g. 10 μl in 1 ml; final Trichostatin A concentration in the 1× Developer=2 μM; final concentration after addition to HDAC/Substrate reaction=1 μM). Added Assay buffer, diluted trichostatin A or test inhibitor to appropriate wells of the microtiter plate. Added diluted HeLa extract or other HDAC sample to all wells except for negative controls.
HDAC inhibitors is screened using an HDAC fluorimetric assay kit (AK-500, Biomol, Plymouth Meeting, Pa.).
Each assay is setup as follows: Defrost all kit components and kept on ice until use. […] Prepare dilutions of Trichostatin A (TSA, positive control) and tested compounds in assay buffer (5× of final concentration). Dilute Fluor de Lys™ Substrate in assay buffer to 100 uM (50 fold=2× final). Dilute Fluor de Lys™ developer concentrate 20-fold (e.g. 50 μl plus 950 μl Assay Buffer) in cold assay buffer. Second, dilute the 0.2 mM Trichostatin A 100-fold in the 1× Developer (e.g. 10 μl in 1 ml; final Trichostatin A concentration in the 1× Developer=2 μM; final concentration after addition to HDAC/Substrate reaction=1 μM). Add Assay buffer, dilute trichostatin A or test inhibitor to appropriate wells of the microtiter plate. Add diluted HeLa extract or other HDAC sample to all wells except for negative controls.
as §4, with “assay buffer)” for “Assay Buffer)”, “assay” for “Assay”
CDK2/cyclinE: 0.5 nM CDK2/cyclinE and 5 μM Histon H1 are in the reaction buffer plus 1 μM ATP and 1% DMSO final. Incubate for 2 hours at room temperature. […] Incubate for 2 hours at room temperature.

Broadly, the melting point is the temperature, or range, at which the solid turns liquid. By IC50 is commonly meant the point on the concentration scale where inhibition reaches its midpoint.

Regarding `Nc1ncnc2c1nc(Sc1cc3c(cc1Br)OCO3)n2CC(=O)NO` [Compound 1, 2-(6-amino-8-(6-bromobenzo[d][1,3]dioxol-5-ylthio)-9H-purin-9-yl)-N-hydroxyacetamide], the melting point is 230 °C (dec.).

`CC(C)(C)c1cnc(CSc2cnc(NC(=O)C3CCN(CCCC(=O)NO)CC3)s2)o1` [Compound 1, N-(5-((5-tert-butyloxazol-2-yl)methylthio)thiazol-2-yl)-1-(4-(hydroxyamino)-4-oxobutyl)piperidine-4-carboxamide] displayed a melting point of 176 to 180 °C.

`CC(C)(C)c1cnc(CSc2cnc(NC(=O)C3CCN(CCCCCC(=O)NO)CC3)s2)o1` [Compound 3, N-(5-((5-tert-butyloxazol-2-yl)methylthio)thiazol-2-yl)-1-(6-(hydroxyamino)-6-oxohexyl)piperidine-4-carboxamide] returned a melting point of 127 to 130 °C.

As for `Cc1[nH]c(/C=C2\C(=O)Nc3ccc(F)cc32)c(C)c1C(=O)NCCCCCC(=O)NO` [Compound 4, N-(5-(hydroxycarbamoyl)pentyl)5-((Z)-(5-fluoro-2-oxoindolin-3-ylidene)methyl)-2,4-dimethyl-1H-pyrrole-3-carboxamide], the melting point is 209.7 °C (dec.).

`CN(C)CC[C@H](CSc1ccccc1)Nc1ccc(S(=O)(=O)NC(=O)c2ccc(N3CCN(Cc4ccccc4-c4ccc(Cl)cc4)CC3)c(NC(=O)CCCCC(=O)NO)c2)cc1[N+](=O)[O-]` [Compound 8, (R)—N^1-(2-(4-((4′-Chlorobiphenyl-2-yl)methyl)piperazin-1-yl)-5-(4-(4-(dimethylamino)-1-(phenylthio)butan-2-ylamino)-3-nitrophenylsulfonylcarbamoyl)phenyl)-N^6-hydroxyadipamide] yielded a melting point of 150 °C.

`C[C@@H](Nc1ncnc2[nH]c(-c3ccc(OCC(=O)NO)cc3)cc12)c1ccccc1` [Compound 17, (R)—N-hydroxy-2-(4-(4-(1-phenylethylamino)-7H-pyrrolo[2,3-d]pyrimidin-6-yl)phenoxy)acetamide]: the melting point is 116.8 to 126.8 °C.

Turning to `Cc1nc(NCCCCCCC(=O)NO)cc(Nc2ncc(C(=O)Nc3c(C)cccc3Cl)s2)n1` [Compound 24, N-(2-chloro-6-methylphenyl)-2-(6-(7-(hydroxyamino)-7-oxoheptylamino)-2-methylpyrimidin-4-ylamino)thiazole-5-carboxamide], the melting point was 150.7 °C (dec.).

In the case of `Nc1ccc(C(=O)NCCNC(=O)CCCC(=O)NO)cc1` [Compound 29, N-hydroxy-4-(2-(4-aminobenzamido)-ethylcarbamoyl)butanamide], the melting point lay in the range of 158.9 to 159.8 °C.

Turning to `COc1cc2ncnc(Nc3ccc(F)c(Cl)c3)c2cc1NC(=O)CCCCCCC(=O)NO` [Compound 40], the IC50 with Pancreas_MiaPaCa2, in the data set with Pancreas_HPAC, in the data set on Pancreas_BxPC3, in the data set with Pancreas_CFPAC and in the data set with Pancreas_PANC1 was 1 to 10 µM in each case.

For the compound `COc1cc2ncnc(Nc3ccc(F)c(Cl)c3)c2cc1OCCOc1ccc(/C=C/C(=O)NO)cc1` [Compound 66], the IC50 in the data set with Pancreas_MiaPaCa2 was 1 to 10 µM; in the data set on Pancreas_HPAC, 1 to 10 µM; with Pancreas_BxPC3 it was 1 to 10 µM; in the data set on Pancreas_CFPAC it was > 10 µM; in the data set with Pancreas_PANC1, 1 to 10 µM.

In the case of `COCCOc1cc2ncnc(Nc3ccc(F)c(Cl)c3)c2cc1NC(=O)CCCCCCC(=O)NO` [Compound 70, N^1-(4-(3-chloro-4-fluorophenylamino)-7-(2-methoxyethoxy)quinazolin-6-yl)-N^8-hydroxyoctanediamide], the 50% inhibitory concentration (IC50) with Pancreas_MiaPaCa2 is 1 to 10 µM; in the data set on Pancreas_HPAC, > 10 µM; with Pancreas_BxPC3, 1 to 10 µM; with Pancreas_CFPAC, 1 to 10 µM; in the data set with Pancreas_PANC1 it was 1 to 10 µM.

For `COc1cc2ncnc(N[C@H](C)c3ccccc3)c2cc1OCCCCCC(=O)NO` [Compound 77, (R)—N-hydroxy-6-(7-methoxy-4-(1-phenylethylamino)quinazolin-6-yloxy)-hexanamide], the IC50 in the data set on Pancreas_MiaPaCa2 is 0.1 to 1 µM; in the data set with Pancreas_HPAC, > 10 µM; with Pancreas_BxPC3, 1 to 10 µM; with Pancreas_CFPAC it was 1 to 10 µM; in the data set on Pancreas_PANC1 it was > 10 µM.

Turning to `COc1cc2ncnc(N[C@H](C)c3ccccc3)c2cc1OCCCCCCC(=O)NO` [Compound 79, (R)—N-hydroxy-7-(7-methoxy-4-(1-phenylethylamino)quinazolin-6-yloxy)heptanamide], the IC50 in the data set on Pancreas_MiaPaCa2 was 1 to 10 µM; in the data set on Pancreas_HPAC it was > 10 µM; in the data set with Pancreas_BxPC3, 1 to 10 µM; with Pancreas_CFPAC it was 1 to 10 µM; in the data set with Pancreas_PANC1 it was 1 to 10 µM.

Regarding `COc1cc2ncnc(Nc3ccc(F)c(Cl)c3)c2cc1NC(=O)Nc1ccc(C(=O)NO)cc1` [Compound 94], the half-inhibitory concentration (IC50) in data set [1] is > 10 µM.

With `COc1cc2ncnc(Nc3ccc(F)c(Cl)c3)c2cc1OCCCCCC(C(=O)NO)C(C)C` (stereo not shown) [Compound 112], the 50% inhibitory concentration (IC50) in data set [1] was > 10 µM.

Take `COc1cc2ncnc(Nc3ccc(F)c(Cl)c3)c2cc1OCCCOc1ccc(C(=O)NO)cc1` [Compound 202]: the IC50 in data set [1] was in the range of 0.1 to 1 µM.

With `COc1cc2ncnc(Nc3ccc(F)c(Cl)c3)c2cc1OCCCCOc1ccc(C(=O)NO)cc1` [Compound 203], the IC50 in data set [1] was 0.1 to 1 µM.

As for `COc1cc2ncnc(Nc3ccc(F)c(Cl)c3)c2cc1Oc1ccc(C#CCCC(=O)NO)cc1` [Compound 204], the half-inhibitory concentration (IC50) in data set [1] is 1 to 10 µM.

For `C#Cc1cccc(Nc2ncnc3cc(O)c(OCCCCCCC(=O)NO)cc23)c1` [Compound 207], in data set [1], the IC50 is < 0.1 µM.

In the case of `C#Cc1cc(Nc2ncnc3cc(O)c(OCCCCCCC(=O)NO)cc23)ccc1O` [Compound 208], in data set [1], the IC50 was < 0.1 µM.
